Measured values reported in PubChem BioAssay AID1745844 (Carcinogenic Potency Database (CPDB), 2022).
Where “and” joins values, the source holds several entries; their conditions need not be identical. Equal values may be shown once. Calls of active or inactive are those of the source. How the calls were made is not given here.

System: rodent lifetime carcinogenesis bioassay, tumor incidence TD50
Experiment: carcinogenic potency in animals, long-term in vivo studies, CPDB compilation (AID 1745844)

## CC(CN1c2ccccc2Sc2ccccc21)N(C)C (centres undefined)
mouse, strain B6C3F1, females, by gavage, site: any site (literature study), lesion: several types, types named in the paper, dosed 104 weeks, study length 105 weeks
  carcinogen call: negative (inactive)
mouse, strain B6C3F1, females, by gavage, site: liver, lesion: hepatocellular adenoma + hepatoblastoma + hepatocellular carcinoma, dosed 104 weeks, study length 105 weeks
  TD50: 47.8 mg/kg/day
mouse, strain B6C3F1, males, by gavage, site: any site (literature study), lesion: several types, types named in the paper, dosed 103 weeks, study length 104 weeks
  TD50: 393 mg/kg/day (inactive)
mouse, strain B6C3F1, males, by gavage, site: liver, lesion: hepatocellular adenoma + hepatoblastoma + hepatocellular carcinoma, dosed 103 weeks, study length 104 weeks
  TD50: 157 mg/kg/day
rat, strain Fischer 344, females, by gavage, site: any site (literature study), lesion: several types, types named in the paper, dosed 103 weeks, study length 104 weeks
  carcinogen call: negative (inactive)
rat, strain Fischer 344, females, by gavage, site: liver, lesion: hepatocellular adenoma + hepatoblastoma + hepatocellular carcinoma, dosed 103 weeks, study length 104 weeks
  TD50: 418 mg/kg/day
rat, strain Fischer 344, males, by gavage, site: any site (literature study), lesion: several types, types named in the paper, dosed 102 weeks, study length 102 weeks
  TD50: 24.6 mg/kg/day
rat, strain Fischer 344, males, by gavage, site: testis, lesion: interstitial-cell adenoma, bilateral + interstitial-cell adenoma, dosed 102 weeks, study length 102 weeks
  TD50: 10.3 mg/kg/day (inactive)

## CCN(CC)CCOc1ccc(C(=C(Cl)c2ccccc2)c2ccccc2)cc1
mouse, strain C57L/He x 129/Rr x C3HeB/De x SWR/Ly, females, by gavage, site: any site (literature study), lesion: several types, types named in the paper, dosed 69 weeks, study length 69 weeks
  TD50: 3.62 mg/kg/day (inactive)
mouse, strain C57L/He x 129/Rr x C3HeB/De x SWR/Ly, females, by gavage, site: any site (literature study), lesion: several types, types named in the paper, dosed 69 weeks, study length 82 weeks
  carcinogen call: negative (inactive)
mouse, strain C57L/He x 129/Rr x C3HeB/De x SWR/Ly, females, by gavage, site: lung, lesion: one or several types, types not named, dosed 69 weeks, study length 69 weeks
  TD50: 5 mg/kg/day (inactive)

## O=C1c2ccccc2C(=O)c2c(O)cccc21
rat, strain ACI/n, males, in feed, site: cecum, lesion: adenocarcinoma, dosed 68 weeks, study length 68 weeks
  TD50: 619 mg/kg/day
rat, strain ACI/n, males, in feed, site: cecum, lesion: adenoma, dosed 68 weeks, study length 68 weeks
  TD50: 277 mg/kg/day
rat, strain ACI/n, males, in feed, site: colon, lesion: adenocarcinoma, dosed 68 weeks, study length 68 weeks
  TD50: 246 mg/kg/day
rat, strain ACI/n, males, in feed, site: colon, lesion: adenoma, dosed 68 weeks, study length 68 weeks
  TD50: 219 mg/kg/day
rat, strain ACI/n, males, in feed, site: forestomach, lesion: papilloma, dosed 68 weeks, study length 68 weeks
  TD50: 789 mg/kg/day
rat, strain ACI/n, males, in feed, site: large intestine, lesion: several types, types named in the paper, dosed 68 weeks, study length 68 weeks
  TD50: 59.2 mg/kg/day
rat, strain ACI/n, males, in feed, site: liver, lesion: hepatocellular carcinoma, dosed 68 weeks, study length 68 weeks
  TD50: 789 mg/kg/day
rat, strain ACI/n, males, in feed, site: liver, lesion: neoplastic nodule, dosed 68 weeks, study length 68 weeks
  TD50: 219 mg/kg/day
rat, strain ACI/n, males, in feed, site: liver, lesion: several types, types named in the paper, dosed 68 weeks, study length 68 weeks
  TD50: 219 mg/kg/day
rat, strain ACI/n, males, in feed, site: stomach, glandular, lesion: adenoma, dosed 68 weeks, study length 68 weeks
  TD50: 3340 mg/kg/day
rat, strain ACI/n, males, in feed, site: stomach, lesion: several types, types named in the paper, dosed 68 weeks, study length 68 weeks
  TD50: 619 mg/kg/day
rat, strain Fischer 344, males, in feed, site: cecum, lesion: adenocarcinoma, dosed 78 weeks, study length 78 weeks
  TD50: 432 mg/kg/day
rat, strain Fischer 344, males, in feed, site: colon, lesion: adenocarcinoma, dosed 78 weeks, study length 78 weeks
  TD50: 432 mg/kg/day
rat, strain Fischer 344, males, in feed, site: colon, lesion: several types, types named in the paper, dosed 78 weeks, study length 78 weeks
  TD50: 432 mg/kg/day
rat, strain Fischer 344, males, in feed, site: large intestine, lesion: several types, types named in the paper, dosed 78 weeks, study length 78 weeks
  TD50: 222 mg/kg/day

## N/C(=N\O)c1ccc([N+](=O)[O-])o1
rat, strain Sprague-Dawley, females, in feed, site: any site (literature study), lesion: several types, types named in the paper, dosed 46 weeks, study length 66 weeks
  TD50: 42 mg/kg/day (inactive)

## Cc1nc(N)cc2[nH]c3ccccc3c12
mouse, strain CDF1, females, in feed, site: liver, lesion: hepatocellular carcinoma, dosed 88 weeks, study length 88 weeks
  TD50: 6.81 mg/kg/day
mouse, strain CDF1, males, in feed, site: liver, lesion: hepatocellular carcinoma, dosed 88 weeks, study length 88 weeks
  TD50: 88.2 mg/kg/day
mouse, strain CDF1, males, in feed, site: liver, lesion: several types, types named in the paper, dosed 88 weeks, study length 88 weeks
  TD50: 83.2 mg/kg/day
mouse, strain CDF1, males, in feed, site: lung, lesion: adenocarcinoma, dosed 88 weeks, study length 88 weeks
  TD50: 81.1 mg/kg/day
mouse, strain CDF1, males, in feed, site: lung, lesion: adenoma, dosed 88 weeks, study length 88 weeks
  TD50: 224 mg/kg/day
rat, strain ACI, females, in feed, site: ileum, lesion: adenoma, dosed 124 weeks, study length 124 weeks
  TD50: 41.4 mg/kg/day
rat, strain ACI, females, in feed, site: jejunum, lesion: adenocarcinoma, dosed 124 weeks, study length 124 weeks
  TD50: 41.4 mg/kg/day
rat, strain ACI, females, in feed, site: liver, lesion: hemangioendothelial sarcoma, dosed 124 weeks, study length 124 weeks
  TD50: 41.4 mg/kg/day
rat, strain ACI, females, in feed, site: liver, lesion: neoplastic nodule, dosed 124 weeks, study length 124 weeks
  TD50: 4.43 mg/kg/day
rat, strain ACI, females, in feed, site: liver, lesion: several types, types named in the paper, dosed 124 weeks, study length 124 weeks
  TD50: 4.43 mg/kg/day
rat, strain F344/DuCrj, females, in feed, site: all sites, lesion: malignant lymphoma, dosed 112 weeks, study length 112 weeks
  TD50: 29 mg/kg/day
rat, strain F344/DuCrj, females, in feed, site: clitoral gland, lesion: adenocarcinoma, dosed 112 weeks, study length 112 weeks
  TD50: 75.5 mg/kg/day
rat, strain F344/DuCrj, females, in feed, site: clitoral gland, lesion: adenoma, dosed 112 weeks, study length 112 weeks
  TD50: 12.8 mg/kg/day
rat, strain F344/DuCrj, females, in feed, site: clitoral gland, lesion: several types, types named in the paper, dosed 112 weeks, study length 112 weeks
  TD50: 9.42 mg/kg/day
rat, strain F344/DuCrj, females, in feed, site: liver, lesion: hepatocellular adenoma, dosed 112 weeks, study length 112 weeks
  TD50: 74.3 mg/kg/day
rat, strain F344/DuCrj, females, in feed, site: mammary gland, lesion: adenoma, dosed 112 weeks, study length 112 weeks
  TD50: 76.2 mg/kg/day
rat, strain F344/DuCrj, females, in feed, site: mammary gland, lesion: several types, types named in the paper, dosed 112 weeks, study length 112 weeks
  TD50: 9.78 mg/kg/day and 11.5 mg/kg/day
rat, strain F344/DuCrj, females, in feed, site: uterus, lesion: endometrial stromal polyp, dosed 112 weeks, study length 112 weeks
  TD50: 3.6 mg/kg/day
rat, strain F344/DuCrj, males, in feed, site: liver, lesion: hepatocellular adenoma, dosed 112 weeks, study length 112 weeks
  TD50: 10.7 mg/kg/day
rat, strain F344/DuCrj, males, in feed, site: mammary gland, lesion: several types, types named in the paper, dosed 112 weeks, study length 112 weeks
  TD50: 8.43 mg/kg/day
rat, strain F344/DuCrj, males, in feed, site: urinary bladder, lesion: several types, types named in the paper, dosed 112 weeks, study length 112 weeks
  TD50: 9.72 mg/kg/day
rat, strain F344/DuCrj, males, in feed, site: urinary bladder, lesion: transitional-cell carcinoma, dosed 112 weeks, study length 112 weeks
  TD50: 59.9 mg/kg/day
rat, strain F344/DuCrj, males, in feed, site: urinary bladder, lesion: transitional-cell papilloma, dosed 112 weeks, study length 112 weeks
  TD50: 12.3 mg/kg/day

## CCCNC(=O)NS(=O)(=O)c1ccc(Cl)cc1
mouse, strain B6C3F1, females, in feed, site: any site (literature study), lesion: several types, types named in the paper, dosed 104 weeks, study length 104 weeks
  carcinogen call: negative (inactive)
mouse, strain B6C3F1, females, in feed, site: lung, lesion: alveolar/bronchiolar adenoma + alveolar/bronchiolar carcinoma, dosed 104 weeks, study length 104 weeks
  TD50: 1440 mg/kg/day
mouse, strain B6C3F1, males, in feed, site: any site (literature study), lesion: several types, types named in the paper, dosed 104 weeks, study length 104 weeks
  carcinogen call: negative (inactive)
rat, strain Fischer 344, females, in feed, site: any site (literature study), lesion: several types, types named in the paper, dosed 104 weeks, study length 104 weeks
  carcinogen call: negative (inactive)
rat, strain Fischer 344, males, in feed, site: any site (literature study), lesion: several types, types named in the paper, dosed 103 weeks, study length 103 weeks
  carcinogen call: negative (inactive)

## CCN(Cc1cccc(S(=O)(=O)O)c1)c1ccc(C(=C2C=CC(=[N+](CC)Cc3cccc(S(=O)(=O)O)c3)C=C2)c2ccc(O)cc2S(=O)(=O)[O-])cc1
mouse, strain C3HeB/FeJ, females, in feed, site: any site (literature study), lesion: malignant tumor, dosed 104 weeks, study length 104 weeks
  carcinogen call: negative (inactive)
mouse, strain C3HeB/FeJ, females, in feed, site: any site (literature study), lesion: several types, types named in the paper, dosed 104 weeks, study length 104 weeks
  carcinogen call: negative (inactive)
mouse, strain C3HeB/FeJ, females, in feed, site: liver, lesion: hepatocellular adenoma, dosed 104 weeks, study length 104 weeks
  carcinogen call: negative (inactive)
mouse, strain C3HeB/FeJ, females, in feed, site: lung, lesion: adenoma, dosed 104 weeks, study length 104 weeks
  TD50: 133000 mg/kg/day (inactive)
mouse, strain C3HeB/FeJ, males, in feed, site: any site (literature study), lesion: malignant tumor, dosed 104 weeks, study length 104 weeks
  carcinogen call: negative (inactive)
mouse, strain C3HeB/FeJ, males, in feed, site: any site (literature study), lesion: several types, types named in the paper, dosed 104 weeks, study length 104 weeks
  TD50: 18100 mg/kg/day (inactive)
mouse, strain C3HeB/FeJ, males, in feed, site: lung, lesion: adenoma, dosed 104 weeks, study length 104 weeks
  carcinogen call: negative (inactive)
rat, strain Osborne-Mendel, females, in feed, site: any site (literature study), lesion: malignant tumor, dosed 104 weeks, study length 104 weeks
  TD50: 46700 mg/kg/day (inactive)
rat, strain Osborne-Mendel, females, in feed, site: any site (literature study), lesion: several types, types named in the paper, dosed 104 weeks, study length 104 weeks
  TD50: 18500 mg/kg/day (inactive)
rat, strain Osborne-Mendel, females, in feed, site: liver, lesion: one or several types, types not named, dosed 104 weeks, study length 104 weeks
  carcinogen call: negative (inactive)
rat, strain Osborne-Mendel, females, in feed, site: mammary gland, lesion: fibroadenoma, dosed 104 weeks, study length 104 weeks
  carcinogen call: negative (inactive)
rat, strain Osborne-Mendel, males, in feed, site: any site (literature study), lesion: malignant tumor, dosed 104 weeks, study length 104 weeks
  carcinogen call: negative (inactive)
rat, strain Osborne-Mendel, males, in feed, site: any site (literature study), lesion: several types, types named in the paper, dosed 104 weeks, study length 104 weeks
  carcinogen call: negative (inactive)
rat, strain Osborne-Mendel, males, in feed, site: liver, lesion: hepatocellular adenoma, dosed 104 weeks, study length 104 weeks
  carcinogen call: negative (inactive)

## NNC(N)=O
mouse, strain Swiss albino, females, in drinking water, site: blood vessels, lesion: angioma, dosed 118 weeks, study length 118 weeks
  TD50: 975 mg/kg/day
mouse, strain Swiss albino, females, in drinking water, site: blood vessels, lesion: angiosarcoma, dosed 118 weeks, study length 118 weeks
  TD50: 798 mg/kg/day
mouse, strain Swiss albino, females, in drinking water, site: blood vessels, lesion: several types, types named in the paper, dosed 118 weeks, study length 118 weeks
  TD50: 395 mg/kg/day
mouse, strain Swiss albino, females, in drinking water, site: liver, lesion: several types, types named in the paper, dosed 118 weeks, study length 118 weeks
  TD50: 798 mg/kg/day
mouse, strain Swiss albino, females, in drinking water, site: lung, lesion: adenoma, dosed 118 weeks, study length 118 weeks
  TD50: 333 mg/kg/day
mouse, strain Swiss albino, females, in drinking water, site: lung, lesion: several types, types named in the paper, dosed 118 weeks, study length 118 weeks
  TD50: 223 mg/kg/day
mouse, strain Swiss albino, males, in drinking water, site: liver, lesion: hepatoma, dosed 118 weeks, study length 118 weeks
  TD50: 1420 mg/kg/day (inactive)
mouse, strain Swiss albino, males, in drinking water, site: liver, lesion: several types, types named in the paper, dosed 118 weeks, study length 118 weeks
  TD50: 933 mg/kg/day
mouse, strain Swiss albino, males, in drinking water, site: lung, lesion: adenoma, dosed 118 weeks, study length 118 weeks
  TD50: 745 mg/kg/day
mouse, strain Swiss albino, males, in drinking water, site: lung, lesion: several types, types named in the paper, dosed 118 weeks, study length 118 weeks
  TD50: 833 mg/kg/day
